Among the test systems are DMS 273 small cell lung; KM20L2 colon; M19-MEL melanoma; P388 leukemia; P388/ADR leukemia; SNB-78 CNS; XF 498 CNS; DMS 114 small cell lung; LXFL 529 NSCLC; HOP-18 NSCLC; SN12K1 renal.
Test in all cases: NCI tumour cell line growth inhibition, 48 h

SMILES strings stand for the structures. Values joined by “and” are separate entries in the source; they are usually repeats but may differ in a detail not shown here. Equal values may be shown once.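 Assay format: 96-well plates, 48-hour exposure. GI50: concentration for 50% inhibition of growth. The concentration for full growth arrest is given as TGI.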

For the molecule `COc1ccc(CC2C(=O)NC(C)C(=O)N(C)C3Cc4ccc(cc4)Oc4cc(ccc4O)CC(C(=O)NC(C)C(=O)NC(C)C(=O)N2C)N(C)C3=O)cc1` (stereo not given), the TGI was determined as 0.0532 µM in the experiment with DMS 273 small cell lung; 0.49 µM in the experiment on KM20L2 colon; 0.0192 µM in the experiment on M19-MEL melanoma; 0.0177 µM with P388 leukemia; 20.6 µM with P388/ADR leukemia; 0.0256 µM in the experiment on SNB-78 CNS. In the experiment with XF 498 CNS, this molecule displayed a TGI of 22.4 nM.
For the molecule `CCN(CC)c1ccc(C(=C2C=CC(=[N+](CC)CC)C=C2)c2ccccc2)cc1`, the TGI in the experiment on DMS 114 small cell lung came to 0.208 µM; in the experiment with DMS 273 small cell lung, 0.134 µM; in the experiment with KM20L2 colon, 0.117 µM; with LXFL 529 NSCLC it was 115 nM; in the experiment on M19-MEL melanoma, 0.158 µM; in the experiment on SNB-78 CNS it was 0.237 µM. For the same molecule, the TGI with XF 498 CNS stood at 39.1 nM.
For `NC(CO)c1ccccc1` (stereo not given), the TGI in the experiment with DMS 114 small cell lung is above 100 µM; in the experiment on DMS 273 small cell lung, above 100 µM; in the experiment with HOP-18 NSCLC it was 96.1 µM; with KM20L2 colon, above 100 µM; with LXFL 529 NSCLC, above 100000 nM; in the experiment with SNB-78 CNS, above 100 µM. The TGI with XF 498 CNS was above 100000 nM.
Take `C=C1C(=O)C[C@@]23CCC[C@@]12CC(O)C3` (stereo not given in full): the TGI with DMS 114 small cell lung was 38.3 µM; in the experiment with DMS 273 small cell lung, 45.8 µM; with HOP-18 NSCLC it was 37.4 µM; in the experiment on KM20L2 colon, 47.9 µM; in the experiment with M19-MEL melanoma it was above 70.2 µM; in the experiment on P388 leukemia it was 25.3 µM. In addition, the TGI turned out to be 32.4 µM with P388/ADR leukemia, 39.6 µM in the experiment with SN12K1 renal, 99 µM with SNB-78 CNS and 41100 nM in the experiment on XF 498 CNS.
On to `CSc1nc2c(ncn2C2OCC(O)C(O)C2O)c(=O)[nH]1` (stereo not given), for which the TGI in the experiment on DMS 114 small cell lung, in the experiment on DMS 273 small cell lung, with HOP-18 NSCLC, in the experiment on KM20L2 colon, in the experiment on M19-MEL melanoma and in the experiment on P388 leukemia was above 100 µM each time. In addition, the TGI was above 100 µM in the experiment with P388/ADR leukemia, above 100 µM in the experiment with SN12K1 renal, above 100 µM in the experiment with SNB-78 CNS and above 100000 nM in the experiment with XF 498 CNS.
For the molecule `CC(=O)c1c(O)c(C)c(O)c2c1OC1=CC(=O)C(C(C)=O)C(=O)C12C` (stereo not given), the GI50 with DMS 114 small cell lung is 6.22 µM and 18.5 µM; in the experiment with DMS 273 small cell lung, 3.74 µM and 7.53 µM; with HOP-18 NSCLC, 3.28 µM and 14.6 µM; in the experiment on KM20L2 colon, 4.99 µM and 27 µM; with M19-MEL melanoma, 5.4 µM and 24.9 µM; with P388 leukemia it was 3.74 µM and 23.8 µM. Besides, the GI50 with P388/ADR leukemia was 5.92 µM and 20.1 µM; in the experiment on SN12K1 renal it was 4.99 µM and 14.1 µM; in the experiment on SNB-78 CNS it was 8.87 µM and 28.8 µM. Further, the TGI in the experiment with DMS 114 small cell lung is 29.9 µM and 58.3 µM; in the experiment on DMS 273 small cell lung, 11.9 µM and 22.5 µM; in the experiment with HOP-18 NSCLC, 10.6 µM and 67.2 µM; in the experiment with KM20L2 colon it was 16.9 µM and 65.3 µM; with M19-MEL melanoma, 44.4 µM and 79.3 µM; in the experiment on P388 leukemia, 26.3 µM and 60.3 µM. The TGI was 44.1 µM and 61.5 µM in the experiment with P388/ADR leukemia; 19.4 µM and 39.3 µM in the experiment on SN12K1 renal; 48.6 µM and 80.4 µM in the experiment on SNB-78 CNS; 807 nM and 835 nM in the experiment with XF 498 CNS.

Source of the values: PubChem BioAssay (NCI).
